≈ marks a conversion by molar mass, not a printed value. Read-outs that look alike come from different tables or passages of the source.

Data set [1] in a line: physchem. The settings on record: maltitol 1.35 g, curcumin 50 mg, resveratrol 50 mg, extraction with 6 ml SSF at room temperature. The format is physicochemical. The protocol:
(§1) The SSF was prepared following the instructions included in the article published by Minekus et al. in 2014 in the journal Food & Function (Minekus M, Alminger M, Alvito P, et al. A standardized static in vitro digestion method suitable for food - an international consensus. Food & Funct. 2014. 5:1113-1124). In detail, the SSF was prepared by mixing the following saline solutions: • KCI at the concentration of 15.1 mmol/l, • KH2PO4 at the concentration of 3.7 mmol/l, • NaHCO3 at the concentration of 13.6 mmol/l, • MgCl2(H2O)6 at the concentration of 0.15 mmol/l, and • (NH4)2CO3 at the concentration of 0.06 mmol/l. […]
(§2) Each sample as illustrated below was analysed in triplicate and the concentration of curcumin and resveratrol was calculated on the basis of two calibration curves previously constructed using the curcumin and resveratrol supplied as reference substance and dissolved in 96% ethanol. For processing the calibration curves, the curcumin and resveratrol solutions (prepared by dissolving an exactly weighed quantity of substance in 96% ethanol) were prepared and subjected to analysis in a concentration range, from 0.5 to 200 µg/ml . […]

The nature of data set [2]: physchem. The format is physicochemical. Particulars: dmem medium, mean of technical triplicates, read-out: Concentration in DMEM medium. As for the experimental part: (§3) The chromatography analyses were performed using a HPLC-DAD Agilent 1100 system (Agilent, Waldbronn, Germany), comprising a quaternary pump, self-sampler with thermostat equipped with a 100 µl injection loop, column thermostat, DAD Agilent 1100 detector (Agilent, Waldbronn, Germany). For the system control and data analysis the Chemstation software was used. The separation of the compounds was obtained with a Gemini C18 110A analytical column (150 mm × 2 mm; particle diameter 5 µm), connected to a suitable pre-column, both purchased from Phenomenex, Torrance, CA, USA. […]
as §2
Subsequently, the cell pellet was re-suspended in 24 ml of DMEM medium and the sample was centrifuged at 6000 rpm for 10 minutes to remove the insoluble part. […] The quantities of the compounds added to the medium and were selected on the basis of the first experimental phase. […]

The test system of another data set is HaCat cells. The format is in vitro ADME, Human. The settings on record: HaCat cells incubated 120 minutes at 37°C, mean of technical triplicates. As for the experimental part:
as §3, §2
The cells were detached mechanically using a scraper in 2 ml of PBS and transferred into a 15 ml Falcon test tube for being centrifuged at 1500 rpm for 5 minutes. […] The results obtained, reported in Table 4, were expressed as a mean of the technical triplicates. […]

The format of data set [3] is physicochemical. The protocol:
as §1, §2

In “physchem [1]” (SAMPLE 2: 2.8528 g dark chocolate, ethanol 99.9 µL), `Oc1ccc(/C=C/c2cc(O)cc(O)c2)cc1` [Resveratrol, 3,5,4'-trihydroxy-trans-stilbene] registered a Concentration of 82470 ng/mL. For the same molecule, the solubility in the data set “physchem [1]” (simulated salivary fluid, SAMPLE 1: 2.8528 g dark chocolate, ethanol 199.8 µL, read-out: Concentration) was 156 µg/mL (≈ 683 µM); in “physchem [2]” (no matrix, 167 mg curcumin and 167 mg resveratrol in 20 ml DMEM, filtered), 31.8 µg/mL (≈ 139 µM); in “physchem [2]” (with chocolate matrix: 200 mg curcumin, 200 mg resveratrol, 5.4 g maltitol, 12 g dark chocolate, 799.2 µl ethanol, hexane-defatted, re-suspended in 24 ml DMEM) it was 125 µg/mL (≈ 547 µM). In addition, the “Concentration in cell pellet (absorption by the cells)” value stood at 0 ng/mL in the data set with HaCat cells (no matrix, pellet re-suspended in 500 µl 96° ethanol); 3660 ng/mL in the data set on HaCat cells (with chocolate matrix, maltitol and ethanol).

On to `COc1cc(/C=C/C(=O)CC(=O)/C=C/c2ccc(O)c(OC)c2)ccc1O` [Curcumin], for which the “solubility in SSF” value in data set [3] was “substantial insolubility”.

The record behind these values is patent publication EP3866610B1, “CHOCOLATE MATRIX COMPRISING CURCUMIN AND RESVERATROL” (priority 2018, dated 2020).
